From ChEMBL document CHEMBL1130310, “C3-Thia and C3-carba isosteres of a carbocyclic influenza neuraminidase inhibitor, (3R,4R,5S)-4-acetamido-5-amino-3-propoxyl-1-cyclohexene-1-carboxylic acid” (Bioorg Med Chem Lett, 1997)

Tests used:
[1] = Concentration required for 50% inhibition of influenza neuraminidase incubated in rat plasma at 37 degrees Celsius prior to assay; type: cell-free; conditions: unidentified influenza virus
[2] = Concentration required for 50% inhibition of influenza neuraminidase; parameters: species or system unidentified influenza virus

Row | SMILES | IC50 [1] [nM] | IC50 [2] [nM]
1 | CCCS[C@@H]1C=C(C(=O)O)C[C@H](N)[C@H]1NC(C)=O | 212 | –
2 | CCCO[C@@H]1C=C(C(=O)O)C[C@H](N)[C@H]1NC(C)=O | – | 130
3 | CCCC[C@@H]1C=C(C(=O)O)C[C@H](N)[C@H]1NC(C)=O | – | 220
